According to patent publication US20230039887A1, “COMPOSITIONS FOR TOPICAL TREATMENT OF RADIATION DERMATITIS” (priority 2021, published 2023):

Experiments:
Type in all cases: cell-based
cells = test: MTT assay of cell viability after 24 hours topical application; set-up: cell viability: dose or concentration left out as unconfirmed
Method: Test materials were applied topically for 24 hours and an MTT assay was used to check the viability of cells.
The relative results are provided in the following Table A, with the untreated group defining 100% viability, and shown in FIG. 1. * indicates p≤0.05 and ** indicates p≤0.01 statistical significance after performing unpaired t-test.

APOB = test: qPCR gene expression in tissues treated topically, APOB; conditions: topical, without radiation exposure
Method: (§1) Next, changes in gene expression were measured in tissues treated topically with the formulations (without radiation exposure) using qPCR. […] Five genes were examined: APOB, CSF2, IL24, MT1F, and MT1G.
(§2) Statistical significance was determined using unpaired t-test, P<0.05, N=3, and are indicated in bold. The results are provided in Table B in both linear fold change values (FC) and in percent change.

CSF2 = test: qPCR gene expression in tissues treated topically, CSF2; conditions: topical, without radiation exposure
Method: as §1, §2

IL24 = test: qPCR gene expression in tissues treated topically, IL24; conditions: topical, without radiation exposure
Method: (§3) Next, changes in gene expression were measured in tissues treated topically with the formulations (without radiation exposure) using qPCR. This provides evidence that the CBD is being absorbed by the tissues. Five genes were examined: APOB, CSF2, IL24, MT1F, and MT1G.
as §2, with “change. It is noted that changes in gene expression in general were only seen in the treatments where CBD was used.” for “change.”

MT1F = test: qPCR gene expression in tissues treated topically, MT1F; conditions: topical, without radiation exposure
Method: as §3
as §2, with “change. It is noted that changes in gene expression in general were only seen in the treatments where CBD was used.” for “change.”

MT1G = test: qPCR gene expression in tissues treated topically, MT1G; conditions: topical, without radiation exposure
Method: as §3
as §2, with “change. It is noted that changes in gene expression in general were only seen in the treatments where CBD was used.” for “change.”

C=C(C)[C@@H]1CCC(C)=C[C@H]1c1c(O)cc(CCCCC)cc1O [CBD, 2-[(1R,6R)-6-Isopropenyl-3-methylcyclohex-2-en-1-yl]-5-pentylbenzene-1,3-diol] was tested, and the cell viability (cells) was “significant increase”, the “APOB gene expression, % Δ (percent change)” value (APOB; 1 mg/mL CBD) was 23% and the “APOB gene expression, FC (linear fold change)” value (APOB; 1 mg/mL CBD) was 1.23. For the same compound, the “APOB gene expression, % Δ (percent change)” value (APOB; 10 mg/mL CBD) was 0%, the “APOB gene expression, FC (linear fold change)” value (APOB; 10 mg/mL CBD) was 1.00 and the “APOB gene expression, % Δ (percent change)” value (APOB; 30 mg/mL CBD) was −16%. The “APOB gene expression, FC (linear fold change)” value (APOB; 30 mg/mL CBD) was −1.19, the “APOB gene expression, % Δ (percent change)” value (APOB; 60 mg/mL CBD) was 51% and the “APOB gene expression, % Δ (percent change)” value (APOB; 120 mg/mL CBD) was −9%. For the same compound, the “APOB gene expression, FC (linear fold change)” value (APOB; 120 mg/mL CBD) was −1.10, the “APOB gene expression, % Δ (percent change)” value (APOB; 250 mg/mL CBD) was −60% and the “APOB gene expression, FC (linear fold change)” value (APOB; 250 mg/mL CBD) was −2.48. The “APOB gene expression, % Δ (percent change)” value (APOB; 500 mg/mL CBD) was −96%, the “APOB gene expression, FC (linear fold change)” value (APOB; 500 mg/mL CBD) was −22.22 and the “APOB gene expression, % Δ (percent change)” value (APOB; 750 mg/mL CBD) was −96%. The “APOB gene expression, FC (linear fold change)” value (APOB; 750 mg/mL CBD) was −25.64, the “CSF2 gene expression, % Δ (percent change)” value (CSF2; 1 mg/mL CBD) was 117% and the “CSF2 gene expression, % Δ (percent change)” value (CSF2; 10 mg/mL CBD) was 118%. For the same compound, the “CSF2 gene expression, % Δ (percent change)” value (CSF2; 30 mg/mL CBD) was −19%, the “CSF2 gene expression, % Δ (percent change)” value (CSF2; 60 mg/mL CBD) was 186% and the “CSF2 gene expression, % Δ (percent change)” value (CSF2; 120 mg/mL CBD) was 448%. The “CSF2 gene expression, % Δ (percent change)” value (CSF2; 250 mg/mL CBD) was 763%, the “CSF2 gene expression, % Δ (percent change)” value (CSF2; 500 mg/mL CBD) was −30% and the “CSF2 gene expression, % Δ (percent change)” value (CSF2; 750 mg/mL CBD) was 93%. The “IL24 gene expression, % Δ (percent change)” value (IL24; 1 mg/mL CBD) was 55%, the “IL24 gene expression, % Δ (percent change)” value (IL24; 10 mg/mL CBD) was 48% and the “IL24 gene expression, % Δ (percent change)” value (IL24; 30 mg/mL CBD) was −70%. The “IL24 gene expression, % Δ (percent change)” value (IL24; 60 mg/mL CBD) was −11%, the “IL24 gene expression, % Δ (percent change)” value (IL24; 120 mg/mL CBD) was 63% and the “IL24 gene expression, % Δ (percent change)” value (IL24; 250 mg/mL CBD) was 59%. For the same compound, the “IL24 gene expression, % Δ (percent change)” value (IL24; 500 mg/mL CBD) was −6%, the “IL24 gene expression, % Δ (percent change)” value (IL24; 750 mg/mL CBD) was 54% and the “MT1F gene expression, % Δ (percent change)” value (MT1F; 1 mg/mL CBD) was 147%. The “MT1F gene expression, % Δ (percent change)” value (MT1F; 10 mg/mL CBD) was 40%, the “MT1F gene expression, % Δ (percent change)” value (MT1F; 30 mg/mL CBD) was −65% and the “MT1F gene expression, % Δ (percent change)” value (MT1F; 60 mg/mL CBD) was 134%. For the same compound, the “MT1F gene expression, % Δ (percent change)” value (MT1F; 120 mg/mL CBD) was 602%, the “MT1F gene expression, % Δ (percent change)” value (MT1F; 250 mg/mL CBD) was 2163% and the “MT1F gene expression, % Δ (percent change)” value (MT1F; 500 mg/mL CBD) was 3963%. For the same compound, the “MT1F gene expression, % Δ (percent change)” value (MT1F; 750 mg/mL CBD) was 2971%, the “MT1G gene expression, % Δ (percent change)” value (MT1G; 1 mg/mL CBD) was −41% and the “MT1G gene expression, % Δ (percent change)” value (MT1G; 10 mg/mL CBD) was −4%. For the same compound, the “MT1G gene expression, % Δ (percent change)” value (MT1G; 30 mg/mL CBD) was 92%, the “MT1G gene expression, % Δ (percent change)” value (MT1G; 60 mg/mL CBD) was 2526% and the “MT1G gene expression, % Δ (percent change)” value (MT1G; 120 mg/mL CBD) was 5186%. For the same compound, the “MT1G gene expression, % Δ (percent change)” value (MT1G; 250 mg/mL CBD) was 13439%, the “MT1G gene expression, % Δ (percent change)” value (MT1G; 500 mg/mL CBD) was 33439% and the “MT1G gene expression, % Δ (percent change)” value (MT1G; 750 mg/mL CBD) was 23223%.
In the case of Triton-X, the “Relative Viability” value (cells; positive control, topical 24 hours, untreated = 100%) is reported as 3%.
